Test results reported in US20210198284A1, “GOLD COMPOSITIONS AND METHODS OF USE THEREOF” (THE UNIVERSITY OF MASSACHUSETTS, priority 2018, published 2021).
Read-outs that look alike come from different tables or passages of the source.

Experiments:
A549 cells = assay: Cytotoxicity assay (resazurin); type: cell-based; conditions: 20 h, mean±S.E.M. from two independent experiments
How it was run: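 A549 cells (5×10^3/well) were exposed to two-fold serial dilutions from 128 μg/mL (compounds 9-17 from 1,280 μg/mL) for 20 h at 37 °C. Resazurin was then added for 3 h and fluorescence read at ex 560/em 590 nm. IC50 came from curve fitting of inhibition vs log concentration; triplicates, repeated twice.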

[1] = Log P determination (n-octanol/water, FAAS)
How it was run: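 Shake-flask partition between mutually saturated n-octanol and water; Au in each phase quantified by flame AAS against aqueous Au-standard and n-octanol calibration curves. Compound shaken ~4 h in water then 1 h with octanol, or 3-4 h in both phases then diluted and shaken 1 h; log P = log([oct]/[water]).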

In the case of “(2-Mercaptoethanolato)(trimethylphosphine) gold (I) [Compound 27]”, the “IC50 against A549 cells” value (A549 cells) is reported as 12.3 ± 3.1 µg/mL and the “Log P” value [1] is reported as −0.15.
In the case of “(2-Aminobenzenethiolato)(triethylphosphine) gold(I) [Compound 19]”, the “IC50 against A549 cells” value (A549 cells) is reported as 7.5 ± 0.1 µg/mL and the “Log P” value [1] is reported as 0.61.
In the case of “(2,3,4,6-Tetra-O-acetyl-1-thio-β-D-glucopyranosato) (triethylphosphine) gold(I) [Compound 1, reference compound]”, the “IC50 against A549 cells” value (A549 cells) is reported as 7.7 ± 1.3 µg/mL and the “Log P” value ([1]; n-octanol/water, gold by FAAS) is reported as 0.56.
For “[2,3,4,6-Tetra-O-acetyl-α-D-glucopyranosyl (1→4)-2,3,6-tri-O-acetyl-1-thio-β-D-glucopyranosato](triethylphosphine) gold(I) [Compound 5]”, the “IC50 against A549 cells” value (A549 cells) was 15.2 ± 0.3 µg/mL and the “Log P” value [1] was 0.45.
